The values that follow come from patent US9650339B2, “Inhibitors of histone demethylases” (Gilead Sciences, Inc., priority 2013, dated 2017).

One may read the IC50 as the midpoint of a concentration-inhibition curve. Usually EC50 stands for the concentration at which the effect is half-maximal. High values mean a less potent agent, low ones a more potent agent.

One experiment has as its target T1, KDM2B (FBXL10) (Homo sapiens, UniProt Q8NHM5).
T1 sequence (Q8NHM5 1-650): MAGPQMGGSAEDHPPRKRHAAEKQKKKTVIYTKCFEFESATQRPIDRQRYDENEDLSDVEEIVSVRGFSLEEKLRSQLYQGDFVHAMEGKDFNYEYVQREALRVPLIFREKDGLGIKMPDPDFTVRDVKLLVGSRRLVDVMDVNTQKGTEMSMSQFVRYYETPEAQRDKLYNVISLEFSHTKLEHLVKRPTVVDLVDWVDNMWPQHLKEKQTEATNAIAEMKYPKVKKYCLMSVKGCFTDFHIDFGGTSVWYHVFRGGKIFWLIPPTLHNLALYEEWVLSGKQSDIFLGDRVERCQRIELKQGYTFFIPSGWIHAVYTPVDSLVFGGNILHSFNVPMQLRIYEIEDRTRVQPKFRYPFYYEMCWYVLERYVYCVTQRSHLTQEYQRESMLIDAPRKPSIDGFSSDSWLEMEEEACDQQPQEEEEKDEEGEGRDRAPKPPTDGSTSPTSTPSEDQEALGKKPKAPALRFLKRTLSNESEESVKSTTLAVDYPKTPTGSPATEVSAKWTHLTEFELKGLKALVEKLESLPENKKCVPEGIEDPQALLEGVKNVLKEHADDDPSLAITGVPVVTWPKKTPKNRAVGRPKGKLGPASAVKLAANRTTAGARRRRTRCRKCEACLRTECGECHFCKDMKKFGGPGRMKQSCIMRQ
Briefly: Histone lysine demethylase AlphaLISA assay, KDM2B. Type of experiment: biochemical. The conditions noted are these: read-out: KDM2B HDME Inhibition IC50. A digest of the protocol: (§1)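 AlphaLISA demethylation readout: enzyme preincubated 10 min, then 10 min with compounds in 3% DMSO buffer, before biotinylated methyl-lysine histone peptide substrate with 25 μM L-Asc and 10 μM α-KG, room temperature. Acceptor beads then streptavidin donor beads added, dark incubation, plates read.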
Background: Alpha assays give light when donor and acceptor beads are brought close together.

The target of a further experiment is T2, KDM4A (JMJD2A) (Homo sapiens, UniProt O75164).
T2 construct: 1-350; purchased BPS Bioscience, US; host or cells: E. coli
T2 sequence (O75164 1-350): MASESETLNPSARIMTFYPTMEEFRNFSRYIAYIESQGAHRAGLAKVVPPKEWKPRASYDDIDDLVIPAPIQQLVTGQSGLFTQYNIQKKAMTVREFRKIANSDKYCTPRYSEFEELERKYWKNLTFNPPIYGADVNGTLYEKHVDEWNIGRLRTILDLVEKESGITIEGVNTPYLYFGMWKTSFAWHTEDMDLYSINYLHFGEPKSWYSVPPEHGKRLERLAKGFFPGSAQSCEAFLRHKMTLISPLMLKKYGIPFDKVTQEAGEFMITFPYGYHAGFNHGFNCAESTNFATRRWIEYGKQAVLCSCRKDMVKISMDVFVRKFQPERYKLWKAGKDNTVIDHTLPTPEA
Briefly: Histone lysine demethylase AlphaLISA assay, KDM4A. Type of experiment: biochemical. The conditions noted are these: read-out: KDM4A HDME Inhibition IC50. An outline of the steps:
as §1

Another experiment concerns H3K4me3 mark. As to the kind of experiment: Histone lysine demethylase immunofluorescence assay, non-transfected U2OS cells. The experiment is classed as cell-based. Particulars: Homo sapiens, staining of the H3K4me3 mark, 20 hours incubation with compound. A digest of the protocol: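 Non-transfected U2OS cells incubated with compounds 20 h in DMEM/5% FBS. Fixed cells immunostained for H3K4me3 with Hoechst counterstain and imaged by high-throughput microscopy. IC50 based on average cellular H3K4me3 staining.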

The next experiment has as its system MCF7 cells. As to the kind of experiment: Cell proliferation assay MCF7. The experiment is classed as cell-based. Particulars: MCF7 human breast cancer cells; 120 hours; ATPlite 1 Step. A digest of the protocol:
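Cells grown 24 h in DMEM GlutaMAX/10% FBS, then exposed to compounds in duplicate (≤0.5% DMSO) for 120 h. Viability read as ATP luminescence (ATPlite 1 Step). Seeding set to reach ~90% confluence at harvest.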
In general terms: In ATP-based viability assays light output follows the ATP content of the culture.

Bounds are passed on as bounds.

As to `CN(C)CC1CCC(CNCc2cc(/C=N/C3CC3)ccn2)CC1` (stereo not drawn) [Compound 46, N-[(2-{[({4-[(dimethylamino)-methyl]cyclohexyl}-methyl)amino]-methyl}pyridin-4-yl)methylidene]-cyclopropanamine], the IC50 on KDM2B (FBXL10) was over 2.5 µM; on KDM4A (JMJD2A), 0.25 to 2.5 µM; with H3K4me3 mark, under 0.25 µM. This compound also displayed an EC50 in the experiment with MCF7 cells of under 0.25 µM.

Consider `CCN(CC)C(=O)CNCc1cc(/C=N/CCC2CCCCC2)ccn1` [Compound 57, 2-[({4-[[(2-cyclohexylethyl)imino]-methyl]pyridin-2-yl}methyl)amino]-N,N-diethylacetamide], for which the IC50 on KDM2B (FBXL10), on KDM4A (JMJD2A) and in the experiment with H3K4me3 mark was 0.25 to 2.5 µM in each case. In addition, the EC50 with MCF7 cells was over 2.5 µM.

Consider `CCCCCCCC/N=C/c1ccnc(CNCC(=O)N(CC)CC)c1` [Compound 58, N,N-diethyl-2-[({4-[(octylimino)methyl]-pyridin-2-yl}methyl)amino]-acetamide], for which the IC50 at KDM2B (FBXL10) is 0.25 to 2.5 µM; at KDM4A (JMJD2A) it was over 2.5 µM; with H3K4me3 mark it was over 2.5 µM. The same compound came in with an EC50 in the experiment with MCF7 cells of over 2.5 µM.

In the case of `CCN(CC)CCCCNCc1cc(/C=N/CCO)ccn1` [Compound 61, 2-[{[2-({[4-(diethylamino)-butyl]amino}-methyl)pyridin-4-yl]methylidene}-amino]ethan-1-ol], the values for the IC50 on KDM2B (FBXL10), on KDM4A (JMJD2A) and in the experiment on H3K4me3 mark were over 2.5 µM, over 2.5 µM and under 0.25 µM, respectively. The compound also yielded an EC50 with MCF7 cells of under 0.25 µM.

`CCN(CC)CCCCNCc1cc(/C=N/CC(F)(F)C(F)(F)F)ccn1` [Compound 62, {[2-({[4-(diethylamino)-butyl]amino}methyl)pyridin-4-yl]methylidene} (2,2,3,3,3-pentafluoropropyl)-amine]: the IC50 on KDM2B (FBXL10) was over 2.5 µM; at KDM4A (JMJD2A), over 2.5 µM; with H3K4me3 mark, under 0.25 µM. For the same compound, in the experiment with MCF7 cells, the EC50 was under 0.25 µM.

`CON=Cc1ccnc(CNCCCN(C)C)c1` [Compound 64, [3-(dimethylamino)-propyl]({4-[(methoxyimino)-methyl]pyridin-2-yl}methyl)amine]: the IC50 on KDM2B (FBXL10) is over 2.5 µM; at KDM4A (JMJD2A) it was 0.25 to 2.5 µM; in the experiment on H3K4me3 mark, 0.25 to 2.5 µM. Moreover, the EC50 in the experiment with MCF7 cells was over 2.5 µM.

As to `CCN(CC)CCCCNCc1cc(/C=N\CCC2CCCCC2)ccn1` [Compound 67, (2-cyclohexylethyl)-({[2-({[4-(diethylamino)-butyl]amino}methyl)pyridin-4-yl]methylidene})-amine], the IC50 on KDM2B (FBXL10) was over 2.5 µM; on KDM4A (JMJD2A), over 2.5 µM; with H3K4me3 mark, under 0.25 µM. Moreover, the EC50 in the experiment with MCF7 cells was under 0.25 µM.

With `CN(C)CC1CCC(CNCc2cc(C=O)ccn2)CC1` (stereo not drawn) [Compound 97, 2-{[({4-[(dimethylamino)-methyl]cyclohexyl}-methyl)amino]-methyl}pyridine-4-carbaldehyde], the IC50 was over 2.5 µM on KDM2B (FBXL10), over 2.5 µM on KDM4A (JMJD2A) and under 0.25 µM with H3K4me3 mark. Further, the EC50 in the experiment on MCF7 cells lay in the range of 0.25 to 2.5 µM.

`CN(C)C/C=C\CNCc1cc(C=O)ccn1` [Compound 99, 2-({[(2Z)-4-(dimethylamino)-but-2-en-1-yl]amino}methyl)-pyridine-4-carbaldehyde]: the IC50 on KDM2B (FBXL10) was over 2.5 µM; at KDM4A (JMJD2A), over 2.5 µM; with H3K4me3 mark it was 0.25 to 2.5 µM. The EC50 in the experiment with MCF7 cells is over 2.5 µM.

In the case of `CCN(CCN(C)C)C(=O)CNCc1cc(C=O)ccn1` [Compound 101], the IC50 on KDM2B (FBXL10) is over 2.5 µM; on KDM4A (JMJD2A) it was under 0.25 µM; with H3K4me3 mark, under 0.25 µM. Also, the EC50 in the experiment with MCF7 cells is under 0.25 µM.

For the compound `CCN(CC)CCCCNCc1cc(C=O)ccn1` [Compound 107, 2-({[4-(diethylamino)-butyl]amino}-methyl)pyridine-4-carbaldehyde], the figures for the IC50 at KDM2B (FBXL10), on KDM4A (JMJD2A) and in the experiment with H3K4me3 mark were over 2.5 µM, over 2.5 µM and under 0.25 µM, respectively. In addition, the EC50 in the experiment on MCF7 cells was under 0.25 µM.

Turning to `CCN(CC)CCCCN(Cc1cc(C=O)ccn1)C(=O)C(F)(F)F` [Compound 115, N-[4-(diethylamino)butyl]-2,2,2-trifluoro-N-[(4-formylpyridin-2-yl)methyl]acetamide], the IC50 on KDM2B (FBXL10) was over 2.5 µM; at KDM4A (JMJD2A) it was 0.25 to 2.5 µM; in the experiment with H3K4me3 mark, under 0.25 µM. In the experiment on MCF7 cells, this compound came in with an EC50 of under 0.25 µM.
